Non-standard residues stand in square brackets, D forms with d. Residues, ends and D or L forms follow the SMILES beside them.
Key:
N2a-Tau^RDΔK cells [1] = assay: ROS measurement (DCF), externally added Tau^RDΔK aggregates; assay type: cell-based; details: 10 μM Tau, 100 μM peptide final, pre-incubated, 30 min, n = 3
Procedure: Toxic Tau oligomers and fibrils can induce the production of superoxides and peroxy radicals in cells which can be measured with fluorescent dye dichlorodihydrofluorescein (DCF). N2a-Tau^RDΔK cells were plated on D-lysine-coated 96-well plates. At 70 to 80% confluence, the cells were washed once with warm PBS and then incubated with 20 μM of DCF (Abcam, Cambridge, UK) diluted in 1X dilution buffer for 30 min at 37 °C. After 30 min, the cells were washed once with 1X PBS. After washing, the cells were incubated with desired concentrations of different samples (10 μM oligomers/fibrils ± treated with 100 μM D-peptides or controls) for 30 min. The cytotoxic agent TBHP (tert-butylhydroperoxide) was used as the positive control. The fluorescence intensity was measured using a spectrofluorometer (Tecan, Männedorf, Switzerland; excitation at 485 nm and emission at 535 nm).

N2a-Tau^RDΔK cells [2] = assay: MTT, toxicity of externally added Tau^RDΔK aggregates; assay type: cell-based; details: Tau^RDΔK pre-incubated with peptide 1:10, 24 h, 37 °C; 10 μM Tau, 100 μM peptide final, 24 h on cells, n = 3
Procedure: (§1) Cell viability was analyzed in accordance with the manufacturer’s protocol (Roche Diagnostics, Mannheim, Germany; cell proliferation kit II (MTT)). This assay is based on the cleavage of the yellow tetrazolium salt MTT into purple formazan dye by metabolic active cells. The color changes only in viable cells and can be directly quantified using a scanning multiwell spectrophotometer. In all experiments, the cells were grown as described previously. The cells (25,000 cells/well or 80% confluence) were plated on poly D-lysine-coated 96-well plates (Greiner Bio-One GmbH, Frickenhausen, Germany) for stronger attachment from overnight to 24 h at 37 °C. Fibrillized Tau^RDΔK was generated by incubating 200 μM Tau^RDΔK in BES buffer at 37 °C for 24 h in the presence of 2 mM D-peptides (Tau^RDΔK:peptide = 1:10). Successful fibrillization was verified using ThS (5 μM Tau^RDΔK, 10 μM ThS) measurement. The aggregated Tau^RDΔK (10 μM final concentration), Tau^RDΔK (10 μM) + peptide (100 μM) samples (ISAD1 and ISAD1rev), buffer only (negative control, set to 100% cell viability), and TritonX-100 (2%, cytotoxic agent, positive control) were incubated on N2a-Tau^RDΔK cells (100 μl solution) for another 24 h. The cell viability was measured in accordance with the manufacturer’s protocol.

Tau^FL-P301L = biological target: T1, Tau^FL-P301L (Homo sapiens, UniProt P10636, P618L); assay: Fibrillization of Tau^FL-P301L monitored by ThS assay; assay type: biochemical; details: Tau:peptide = 1:1; 1:5; 1:10
T1 construct: Tau^FL-P301L Full-length Tau mutant P301L
Procedure: (§2) For Tau fibrillization inhibition assays, 10 μM Tau mutant protein (Tau^RDΔK, Tau^FLΔK, Tau^FL-A152T, Tau^FL-P301L) was incubated in BES buffer (N,N-bis(2-hydroxyethyl)-2-aminoethanesulfonic acid, pH 7) in the presence of 2.5 μM heparin at 37 °C for 24 h with and without novel D-peptides (ISAD1 and ISAD1rev) at different concentrations (1 nM to 200 μM). Final concentration of 20 μM ThS was used for monitoring fibrillization. The assay was performed with 40-μl sample volume per well in a 384-well microtiter plate (Thermo LabSystems, Dreieich, Germany). The fibrillization of Tau was monitored by ThS and the relative fluorescence intensity of ThS was read out at 440 excitation/521 emission nm in a Tecan micro titer plate reader (Tecan, Männedorf, Switzerland).

N2a-Tau^RDΔK cells [3] = assay: MTT cytotoxicity of the peptides alone; assay type: cell-based; details: 25, 50, 100, 250 μM peptide, 24 h, n = 3
Procedure: as §1
A MTT-based cytotoxicity assay in the presence of ISAD1 and ISAD1rev peptides. […]

N2a-Tau^RDΔK cells [4] = assay: MTT, intracellularly expressed Tau^RDΔK (Dox induced); assay type: cell-based; details: 1 μg/ml doxycycline, 72 h, n = 2
Procedure: (§3) After the N2a-Tau^RDΔK cells reached the desired confluence (25,000 cells/well or 80%), intracellular Tau^RDΔK expression was induced by the addition of 1 μg/ml Dox. The cells were plated on poly D-lysine-coated 96-well plates (Greiner Bio-One GmbH, Frickenhausen, Germany) and treated with ISAD1 and ISAD1rev in a concentration range of 25 to 250 μM. TritonX-100 (2%) was used as a positive control. The incubation and Tau^RDΔK expression time was 72 h. Following incubation, cell viability was studied by measuring MTT and LDH release in accordance with the manufacturer’s protocol.

[5] = test system: N2a cells expressing Tau^RDΔK; assay: Uptake of FAM-labeled D-peptides by confocal microscopy; assay type: cell-based; details: 25 μM FAM-labeled peptide, 24 h, fixed cells
Procedure: In order to become potentially suitable for therapeutic development, the D-peptides should be internalized by neurons. To test this, 25 μM FAM-labeled ISAD1 or its inversed form was added to cells that express pro-aggregant mutant Tau^RDΔK for 24 h followed by cell fixation.
Fig. 7 Uptake of fluorescence-labeled D-peptides analyzed by confocal microscopy. 25 μM FAM-labeled peptides (ISAD1 and ISArev) were incubated with N2a cells expressing Tau^RDΔK for 24 h. The uptake of D-peptides was analyzed by confocal microscopy. As shown in the representative images, the peptides are mainly localized in the cytoplasm (A1, B1 Draq5 shown as red; A2 ISAD1-FAM, B2 ISAD1rev-FAM; A3, B3 merged images)

N2a-Tau^RDΔK cells [6] = assay: LDH release, intracellularly expressed Tau^RDΔK (Dox induced); assay type: cell-based; details: 1 μg/ml doxycycline, peptide 25, 50, 100, 250 μM, n = 2
Procedure: as §3

Tau^FL-A152T = biological target: T2, Tau^FL-A152T (Homo sapiens, UniProt P10636, A469T); assay: Fibrillization of Tau^FL-A152T monitored by ThS assay; assay type: biochemical; details: Tau:peptide = 1:1; 1:5; 1:10
T2 construct: Tau^FL-A152T Full-length Tau mutant A152T
Procedure: as §2

T1 sequence (P10636 1-441 isoform P10636-8 P301L): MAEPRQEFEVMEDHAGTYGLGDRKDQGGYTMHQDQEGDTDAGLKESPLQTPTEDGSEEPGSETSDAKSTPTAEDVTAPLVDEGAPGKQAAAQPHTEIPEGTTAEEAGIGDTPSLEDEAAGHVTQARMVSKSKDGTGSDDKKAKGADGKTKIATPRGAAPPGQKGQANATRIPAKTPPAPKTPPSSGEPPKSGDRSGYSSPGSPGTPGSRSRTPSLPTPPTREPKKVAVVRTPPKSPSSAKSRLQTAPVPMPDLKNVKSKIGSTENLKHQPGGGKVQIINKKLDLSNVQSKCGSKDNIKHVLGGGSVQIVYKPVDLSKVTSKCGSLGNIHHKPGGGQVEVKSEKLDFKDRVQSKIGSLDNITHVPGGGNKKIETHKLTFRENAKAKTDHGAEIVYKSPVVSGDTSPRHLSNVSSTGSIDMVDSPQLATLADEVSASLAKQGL
T2 sequence (P10636 1-441 isoform P10636-8 A152T): as the sequence (P10636 1-441 isoform P10636-8 P301L) above, with A152T, L301P counted along it

CC(C)C[C@@H](NC(=O)[C@@H](CO)NC(=O)[C@@H](CC(C)C)NC(=O)[C@H](NC(=O)[C@@H](CC(=O)O)NC(=O)[C@@H](C)NC(=O)[C@@H](C)NC(=O)[C@H](N)CO)[C@H](C)O)C(=O)N[C@H](CCCCN)C(=O)N[C@H](Cc1ccccc1)C(=O)N[C@@H](C(=O)N[C@H](CO)C(=O)O)C(C)C [ISAD1rev] (H-[dS][dA][dA][dD][dT][dL][dS][dL][dK][dF][dV][dS]-OH; N-terminus and C-terminus assumed)
Effect on toxicity of Tau aggregates, ROS level (N2a-Tau^RDΔK cells [1]): reducing intracellular ROS levels | Effect on toxicity of Tau aggregates, cell viability (MTT) (N2a-Tau^RDΔK cells [2]): preserving cell viability | Inhibition of Tau^FL-P301L fibrillization, in words (Tau^FL-P301L): weak inhibitory effects | Cytotoxicity, MTT (N2a-Tau^RDΔK cells [3]): do not induce toxic effects | Cell viability at 50 μM peptide (N2a-Tau^RDΔK cells [4]): no increase in cell viability | Intracellular localisation [5]: accumulated in the cytosol but were excluded from the nucleus | Uptake by cells [5]: almost all cells took up the D-peptides | Effect on LDH release of cells expressing Tau^RDΔK (N2a-Tau^RDΔK cells [6]): Protection of cell membrane integrity | Inhibition of Tau^FL-A152T fibrillization, in words (Tau^FL-A152T): weak inhibitory effects

— publication PMC8783508, “A novel D-amino acid peptide with therapeutic potential (ISAD1) inhibits aggregation of neurotoxic disease-relevant mutant Tau and prevents Tau toxicity in vitro” (Alzheimer's Research & Therapy, 2022)
